Measured values taken from PMC12064818, “A general assay platform to study protein pharmacology using ligand-dependent structural dynamics” (Nature Communications, 2025).

Assays:
[1] = target: FLuc-C-HiBiT (firefly luciferase) (Photinus pyralis, UniProt P08659, form not given/L550V); test: SDR assay, FLuc-C-HiBiT; conditions: SDR max. response, clade S
[2] = target: FLuc-C-NLuc (firefly luciferase) (Photinus pyralis, UniProt P08659, form not given/L550V); test: SDR assay, FLuc-C-NLuc; conditions: - ATP
Sequence of FLuc-C-NLuc (firefly luciferase) (P08659 2-550 L550V, form open): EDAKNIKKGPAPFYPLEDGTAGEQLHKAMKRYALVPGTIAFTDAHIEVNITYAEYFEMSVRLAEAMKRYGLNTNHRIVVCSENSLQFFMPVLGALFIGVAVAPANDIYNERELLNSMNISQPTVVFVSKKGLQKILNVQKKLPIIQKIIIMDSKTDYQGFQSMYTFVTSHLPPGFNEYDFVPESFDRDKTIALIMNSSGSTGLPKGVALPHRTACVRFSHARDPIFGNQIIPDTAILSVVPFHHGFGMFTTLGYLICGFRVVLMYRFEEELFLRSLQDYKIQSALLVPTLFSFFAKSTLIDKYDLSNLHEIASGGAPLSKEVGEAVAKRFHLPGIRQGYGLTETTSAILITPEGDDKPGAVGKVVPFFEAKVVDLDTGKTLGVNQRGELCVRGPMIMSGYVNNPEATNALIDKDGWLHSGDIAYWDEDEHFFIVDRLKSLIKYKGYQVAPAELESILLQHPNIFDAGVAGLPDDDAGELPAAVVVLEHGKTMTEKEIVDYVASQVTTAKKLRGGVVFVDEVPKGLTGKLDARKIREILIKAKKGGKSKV

NLuc = target: T1, NLuc (Oplophorus gracilirostris, UniProt Q9GV45, A31E/A60N/A81I/F95D/I117V/K70R/L54V/L99Q/M102K/N193R/P142E/Q151K/Q38R/Q45L/V71I/Y165I); format: biochemical; conditions: - ATP
T1 construct: His tag (inferred from IMAC purification); made in house; host or cells: E. coli
T1 sequence (Q9GV45 other isoform, or with tags, fused parts or gaps with the stated changes): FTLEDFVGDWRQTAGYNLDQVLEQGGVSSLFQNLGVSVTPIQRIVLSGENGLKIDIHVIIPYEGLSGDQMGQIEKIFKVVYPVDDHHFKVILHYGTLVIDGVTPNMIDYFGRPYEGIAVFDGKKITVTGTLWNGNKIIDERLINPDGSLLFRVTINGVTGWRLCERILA
Experimental: Compounds and controls were added to plates as described in Supplementary Data 8. Nano-Glo luciferase assay reagent (Promega) was prepared fresh according to manufacturer’s protocol, filtered and added at 3 μL per well across assay plates with a BioRaptr2 dispenser. Enzyme was incubated with Nano-Glo reagent for 10 min and NLuc luminescence was read on a ViewLux CCD imager (PerkinElmer), with 1 s exposure with medium gain and 2x binning. Data were normalized to average no enzyme control as 100% enzyme inhibition and average DMSO neutral control. See Supplementary Table 4 for additional details.
Supplementary Table 4. […]
Sequence Param eter Value Description […]
5 Detector ViewLux Read plate lum inescence (Exposure = 1- 10 sec; Gain = Medium -high; Speed = Slow;
Dispensing solution was diluted in 1X PBS, pH 7.4.
NanoLuc luciferase (NLuc) enzym atic lum inescence assay […]
Nano-Glo luciferase assay reagent (Prom ega, Cat # N1120) prepared according to m anufacturer’s recom m endations,
4 com ponents stored at -30 °C until use, and reagent prepared fresh for each assay.
syringe filter prior to dispense.

P. pyralis FLuc = P. pyralis FLuc (Photinus pyralis, UniProt P08659); test: FLuc enzymatic luminescence assay, P. pyralis FLuc; format: biochemical; conditions: FLuc enzymatic assay, Clade S follow-up; for IC50: read-out: IC50 or SDR50 (mM) FLuc E
Sequence of P. pyralis FLuc (P08659 whole entry): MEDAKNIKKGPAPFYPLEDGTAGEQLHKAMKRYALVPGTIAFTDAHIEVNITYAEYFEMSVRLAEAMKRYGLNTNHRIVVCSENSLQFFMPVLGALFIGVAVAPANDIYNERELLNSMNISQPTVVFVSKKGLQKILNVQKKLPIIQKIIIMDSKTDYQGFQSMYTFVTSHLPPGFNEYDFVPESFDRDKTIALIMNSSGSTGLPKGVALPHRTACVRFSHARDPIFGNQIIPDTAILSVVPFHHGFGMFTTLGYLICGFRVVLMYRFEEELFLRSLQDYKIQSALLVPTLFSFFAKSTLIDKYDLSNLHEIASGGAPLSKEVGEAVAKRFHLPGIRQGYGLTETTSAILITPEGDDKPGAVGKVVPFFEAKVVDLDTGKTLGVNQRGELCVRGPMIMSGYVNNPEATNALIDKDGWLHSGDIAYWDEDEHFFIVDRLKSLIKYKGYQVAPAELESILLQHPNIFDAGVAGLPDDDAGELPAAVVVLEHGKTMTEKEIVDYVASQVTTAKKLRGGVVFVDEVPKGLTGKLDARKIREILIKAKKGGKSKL
Procedure, shortened: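 Runs with and without 10 µM ATP: compounds were pre-incubated with FLuc (1–10 nM, PBS pH 7.4) at ambient temperature, light-protected, for 30–60 min. Luminescence was imaged 5 min after adding 10 µM D-luciferin (final). Inhibition was scaled between DMSO neutral and no-enzyme controls.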

Sequence of FLuc-C-HiBiT (firefly luciferase) (P08659 2-550 L550V, form open): as the sequence (P08659 2-550 L550V, form open) above

Structure (SMILES) | % Activity (max response, + ATP) [1] [%] | % Activity (max response, - ATP) [1] [%] | Efficacy (%) FLuc-C-NLuc SDR (-ATP) [2] [%] | Efficacy (%) NLuc (- ATP) (NLuc) [%] | Efficacy (%) FLuc E (P. pyralis FLuc) [%] | pIC50 or pSDR50 FLuc E (P. pyralis FLuc) | IC50 (P. pyralis FLuc) [mM]
O=C(NC1CCCCCC1)C1CCN(C(=O)c2ncn3c2COC(c2ccc(Cl)cc2)C3)CC1 (stereo not shown) [NCGC00449846-01] | 13.50 | 0.00 | 0.00 | 0.00 | -16.55 |  | 
O=C(NC1CCCCCCC1)C1CCN(C(=O)c2ncn3c2COC(c2ccc(Cl)cc2)C3)CC1 (stereo not shown) [NCGC00449847-01] | 0.00 | 0.00 | 0.00 | 0.00 | -17.30 |  | 
O=C(NCCC1=CCCCC1)C1CCN(C(=O)c2ncn3c2COC(c2ccc(Cl)cc2)C3)CC1 (stereo not shown) [NCGC00449848-01] | 23.50 | -6.50 | 0.00 | 0.00 | -32.57 | 4.91 | 0.0124
O=C(NCc1ccccc1)C1CCN(C(=O)c2ncn3c2COC(c2ccc(Cl)cc2)C3)CC1 (stereo not shown) [NCGC00449849-01] | 28.50 | 0.00 | 0.00 | 0.00 | -35.02 | 4.91 | 0.0124
Cc1ccc(CNC(=O)C2CCN(C(=O)c3ncn4c3COC(c3ccc(Cl)cc3)C4)CC2)cc1 (stereo not shown) [NCGC00449850-01] | 22.50 | 0.00 | 0.00 | 0.00 | -21.67 |  | 
O=C(NCc1ccccc1F)C1CCN(C(=O)c2ncn3c2COC(c2ccc(Cl)cc2)C3)CC1 (stereo not shown) [NCGC00449851-01] | 18.50 | 0.00 | 0.00 | 0.00 | -40.26 | 4.91 | 0.0124
O=C(NCc1ccc(F)cc1)C1CCN(C(=O)c2ncn3c2COC(c2ccc(Cl)cc2)C3)CC1 (stereo not shown) [NCGC00449852-01] | 32.50 | 0.00 | 0.00 | 0.00 | -25.63 | 4.86 | 0.0139
CC(NC(=O)C1CCN(C(=O)c2ncn3c2COC(c2ccc(Cl)cc2)C3)CC1)c1ccccc1 (stereo not shown) [NCGC00449853-01] | 0.00 | 0.00 | 0.00 | 0.00 | -16.52 |  | 
O=C(NCCc1ccccc1)C1CCN(C(=O)c2ncn3c2COC(c2ccc(Cl)cc2)C3)CC1 (stereo not shown) [NCGC00449854-01] | 0.00 | 0.00 | 0.00 | 0.00 | -25.47 |  | 
O=C(NCC1CCCCC1)C1CCN(C(=O)c2ncn3c2COC(c2ccc(Cl)cc2)C3)CC1 (stereo not shown) [NCGC00449855-01] | 16.00 | 0.00 | 0.00 | 0.00 | -13.13 |  | 
COc1ccc(C2Cn3cnc(C(=O)N4CCC(C(=O)NC(C)C)CC4)c3CO2)cc1 (stereo not shown) [NCGC00449857-01] | 13.32 | 0.00 | 0.00 | 0.00 | -19.61 |  | 
COc1ccc(C2Cn3cnc(C(=O)N4CCC(C(=O)NCC(C)C)CC4)c3CO2)cc1 (stereo not shown) [NCGC00449858-01] | 14.32 | 0.00 | 0.00 | 0.00 | -13.26 |  | 
COc1ccc(C2Cn3cnc(C(=O)N4CCC(C(=O)NC5CCCC5)CC4)c3CO2)cc1 (stereo not shown) [NCGC00449859-01] | 0.00 | 0.00 | 0.00 | 0.00 | 0.00 |  | 
COc1ccc(C2Cn3cnc(C(=O)N4CCC(C(=O)NC5CCCCC5)CC4)c3CO2)cc1 (stereo not shown) [NCGC00449860-01] | 0.00 | 0.00 | 0.00 | 0.00 | 0.00 |  | 
COc1ccc(C2Cn3cnc(C(=O)N4CCC(C(=O)NC5CCC(C)CC5)CC4)c3CO2)cc1 (stereo not shown) [NCGC00449861-01] | 14.50 | 0.00 | 0.00 | 0.00 | 0.00 |  | 
COc1ccc(C2Cn3cnc(C(=O)N4CCC(C(=O)NC5CCCCCC5)CC4)c3CO2)cc1 (stereo not shown) [NCGC00449862-01] | 0.00 | 0.00 | 0.00 | -12.50 | 0.00 |  | 
CCCCNC(=O)C1CCN(C(=O)c2ncn3c2COC(c2ccc(OC)cc2)C3)CC1 (stereo not shown) [NCGC00449864-01] | 0.00 | 0.00 | 0.00 | 0.00 | -10.96 |  | 
COc1ccc(C2Cn3cnc(C(=O)N4CCC(C(=O)NCc5ccccc5)CC4)c3CO2)cc1 (stereo not shown) [NCGC00449865-01] | 0.00 | 0.00 | 0.00 | 0.00 | 0.00 |  | 
COc1ccc(C2Cn3cnc(C(=O)N4CCC(C(=O)NCc5ccc(C)cc5)CC4)c3CO2)cc1 (stereo not shown) [NCGC00449866-01] | 0.00 | -10.00 | 0.00 | -22.39 | 0.00 |  | 
COc1ccc(C2Cn3cnc(C(=O)N4CCC(C(=O)NCCc5ccccc5)CC4)c3CO2)cc1 (stereo not shown) [NCGC00449871-01] | 0.00 | 0.00 | 0.00 | 0.00 | 0.00 |  | 
COc1ccc(C2Cn3cnc(C(=O)N4CCC(C(=O)NCC5CCCCC5)CC4)c3CO2)cc1 (stereo not shown) [NCGC00449872-01] | 0.00 | 0.00 | 0.00 | 0.00 | -14.52 |  | 
COc1ccc(C2Cn3cnc(C(=O)N4CCC(C(=O)NCC5CC5)CC4)c3CO2)cc1 (stereo not shown) [NCGC00449873-01] | 0.00 | 0.00 | 0.00 | 0.00 | 0.00 |  | 
COCCCNC(=O)C1CCN(C(=O)c2ncn3c2COC(c2ccc(OC)cc2)C3)CC1 (stereo not shown) [NCGC00449877-01] | 0.00 | 0.00 | 0.00 | 0.00 | 0.00 |  | 
COc1ccc(C2Cn3cnc(C(=O)N4CCC(C(=O)NCc5cccc(C)c5)CC4)c3CO2)cc1 (stereo not shown) [NCGC00449879-01] | 0.00 | 0.00 | 0.00 | 0.00 | 0.00 |  | 
Cc1ccc(C2Cn3cnc(C(=O)N4CCC(C(=O)NC5CCCC5)CC4)c3CO2)cc1 (stereo not shown) [NCGC00449881-01] | 73.27 | 0.00 | 0.00 | 0.00 | -51.50 | 4.96 | 0.0111
Cc1ccc(C2Cn3cnc(C(=O)N4CCC(C(=O)NC5CCCCC5)CC4)c3CO2)cc1 (stereo not shown) [NCGC00449882-01] | 52.31 | 0.00 | 0.00 | 0.00 | -33.56 | 4.91 | 0.0124
